# Source: US10927105B1 (Lundbeck La Jolla Research Center, Inc., priority 2017, dated 2021)
# Experiments:
# FAAH = FAAH (Homo sapiens (Human), UniProt O00519); assay: In vitro competitive activity-based protein profiling (human prefrontal cortex membrane fractions, FP-Rh probe), FAAH band; settings: read-out: FAAH IC50 (μM) (human); human prefrontal cortex membrane fractions
# Method: Biological Evaluation In Vitro Competitive Activity-Based Protein Profiling.
# Proteomes (mouse brain membrane fraction for mouse assays; human prefrontal cortex membrane fractions for human assays) (50 mL, 1.0 mg/mL total protein concentration) were preincubated with varying concentrations of inhibitors at 37° C. After 30 min, FP-Rh (1.0 mL, 50 mM in DMSO) was added and the mixture was incubated for another 30 min at 37° C. Reactions were quenched with SDS loading buffer (15 μL-4×) and run on SDS-PAGE.
# MAGL = MAGL (Homo sapiens (Human), UniProt Q99685); assay: In vitro competitive activity-based protein profiling (human prefrontal cortex membrane fractions, FP-Rh probe), MAGL band; settings: read-out: MAGL IC50 (μM) (human); human prefrontal cortex membrane fractions
# Sequence of MAGL (Q99685 whole entry): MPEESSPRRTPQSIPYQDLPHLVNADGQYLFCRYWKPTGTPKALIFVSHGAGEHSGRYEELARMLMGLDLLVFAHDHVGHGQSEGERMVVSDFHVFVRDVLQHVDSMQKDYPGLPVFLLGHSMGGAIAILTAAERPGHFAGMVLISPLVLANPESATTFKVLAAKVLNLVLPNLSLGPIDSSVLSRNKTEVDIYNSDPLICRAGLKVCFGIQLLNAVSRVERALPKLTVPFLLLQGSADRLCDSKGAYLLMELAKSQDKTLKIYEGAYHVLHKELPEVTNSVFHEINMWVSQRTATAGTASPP
# Sequence of FAAH (O00519 whole entry): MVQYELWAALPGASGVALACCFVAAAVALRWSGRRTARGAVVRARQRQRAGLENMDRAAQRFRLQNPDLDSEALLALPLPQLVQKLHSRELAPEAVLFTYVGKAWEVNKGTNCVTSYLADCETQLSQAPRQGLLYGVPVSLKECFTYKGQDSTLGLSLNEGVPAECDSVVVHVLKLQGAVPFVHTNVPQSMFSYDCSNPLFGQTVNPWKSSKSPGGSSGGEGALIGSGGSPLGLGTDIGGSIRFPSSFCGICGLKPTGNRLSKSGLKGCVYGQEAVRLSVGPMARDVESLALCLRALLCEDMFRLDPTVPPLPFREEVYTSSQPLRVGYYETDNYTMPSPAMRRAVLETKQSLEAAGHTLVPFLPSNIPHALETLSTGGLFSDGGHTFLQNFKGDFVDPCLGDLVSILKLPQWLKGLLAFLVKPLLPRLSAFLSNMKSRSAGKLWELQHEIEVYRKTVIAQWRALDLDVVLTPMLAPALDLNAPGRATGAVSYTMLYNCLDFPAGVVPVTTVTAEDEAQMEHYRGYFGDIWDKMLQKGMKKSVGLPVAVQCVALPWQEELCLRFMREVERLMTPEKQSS
IC50 (FAAH),IC50 (MAGL),Compound
< 0.1 µM,< 0.1 µM,"NC(=O)c1ccn(C(=O)N2CC3CN(Cc4ccc(N5CCOCC5)cc4C(F)(F)F)CC3C2)n1 (stereo not drawn) [Example 17, 1-(5-(4-Morpholino-2-(trifluoromethyl)benzyl)octahydropyrrolo[3,4-c]pyrrole-2-carbonyl)-1H-pyrazole-3-carboxamide]"
< 0.1 µM,< 0.1 µM,"O=C(O)c1ccn(C(=O)N2C[C@H]3C[C@H](OCc4ccc(Oc5ccc(Cl)cc5)cc4)C[C@H]3C2)n1 [Example 55, 1-(trans-5-((4-(4-chlorophenoxy)-benzyl)oxy)-octahydrocyclopenta-[c]pyrrole-2-carbonyl)-1H-pyrazole-3-carboxylic acid]"
< 0.1 µM,< 0.1 µM,"NC(=O)c1ccn(C(=O)N2CCC3(CCN(Cc4cc(Cl)ccc4C(F)(F)F)C3)CC2)n1 [Example 99, 1-(2-(5-chloro-2-(trifluoromethyl)-benzyl)-2,8-diazaspiro[4.5]-decane-8-carbonyl)-1H-pyrazole-3-carboxamide]"
< 0.1 µM,< 0.1 µM,"O=C(O)c1ccn(C(=O)N2C[C@H]3C[C@H](Oc4cccc(-c5ccccc5)c4)C[C@H]3C2)n1 [Example 125, 1-(trans-5-([1,1′-biphenyl]-3-yloxy)-octahydrocyclopenta-[c]pyrrole-2-carbonyl)-1H-pyrazole-3-carboxylic acid]"
< 0.1 µM,< 0.1 µM,"CN(Cc1ccccc1Cl)[C@H]1C[C@@H]2CN(C(=O)n3cc(Cl)c(C(N)=O)n3)C[C@@H]2C1 [Example 128, 4-chloro-1-(trans-5-((2-chlorobenzyl)-(methyl)amino)-octahydrocyclopenta-[c]pyrrole-2-carbonyl)-1H-pyrazole-3-carboxamide]"
< 0.1 µM,< 0.1 µM,"O=C(O)c1nn(C(=O)N2CCN(Cc3cccc(Oc4ccc(Cl)cc4)c3)CC2)cc1Cl [Example 132, 4-chloro-1-(4-(3-(4-chlorophenoxy)-benzyl)-piperazine-1-carbonyl)-1H-pyrazole-3-carboxylic acid]"
< 0.1 µM,< 0.1 µM,"O=C(O)c1nn(C(=O)N2CCC3(CCCN3Cc3cc4ccc(C(F)(F)F)cc4s3)CC2)cc1Cl [Example 139, 4-chloro-1-(1-((6-(trifluoromethyl)-benzo[b]thiophen-2-yl)methyl)-1,8-diazaspiro[4.5]-decane-8-carbonyl)-1H-pyrazole-3-carboxylic acid]"
< 0.1 µM,< 0.1 µM,"C#Cc1ccc(CN2CCN(C(=O)n3ccc(C(N)=O)n3)CC2)cc1 [Example 144, 1-(4-(4-ethynylbenzyl)-piperazine-1-carbonyl)-1H-pyrazole-3-carboxamide]"
< 0.1 µM,< 0.1 µM,"O=C(O)c1ccn(C(=O)N2C[C@H]3C[C@H](OCc4cccc(Oc5ccc(Cl)cc5)c4)C[C@H]3C2)n1 [Example 158, 1-(trans-5-((3-(4-chlorophenoxy)-benzyl)oxy)-octahydrocyclopenta-[c]pyrrole-2-carbonyl)-1H-pyrazole-3-carboxylic acid]"
< 0.1 µM,< 0.1 µM,"O=C(O)c1ccn(C(=O)N2CCN(Cc3cc(F)cc(Oc4ccc(Cl)cc4)c3)CC2)n1 [Example 161, 1-(4-(3-(4-chlorophenoxy)-5-fluorobenzyl)-piperazine-1-carbonyl)-1H-pyrazole-3-carboxylic acid]"
< 0.1 µM,< 0.1 µM,"Cc1cc(CO[C@H]2C[C@@H]3CN(C(=O)n4ccc(C(=O)O)n4)C[C@@H]3C2)ccc1C(F)(F)F [Example 172, 1-(trans-5-((3-methyl-4-(trifluoromethyl)-benyl)oxy)-octahydrocyclopenta-[c]pyrrole-2-carbonyl)-1H-pyrazole-3-carboxylic acid]"
< 0.1 µM,< 0.1 µM,"NC(=O)c1ccn(C(=O)N2CCN(Cc3ccc(C(F)(F)F)cc3N3CCCC3)CC2)n1 [Example 173, 1-(4-(2-(pyrrolidin-1-yl)-4-(trifluoromethyl)-benzyl)piperazine-1-carbonyl)-1H-pyrazole-3-carboxamide]"
< 0.1 µM,< 0.1 µM,"CN(Cc1cccc(C(F)(F)F)c1)C1CCN(C(=O)n2ccc(C(N)=O)n2)CC1 [Example 176, 1-(4-(methyl(3-(trifluoromethyl)-benzyl)amino)-piperidine-1-carbonyl)-1H-pyrazole-3-carboxamide]"
–,< 0.1 µM,"NC(=O)c1ccn(C(=O)N2CCC3(CCN(Cc4ccc(N5CCOCC5)cc4C(F)(F)F)C3)C2)n1 (stereo not drawn) [Example 436, 1-(7-(4-morpholino-2-(trifluoromethyl)-benzyl)-2,7-diazaspiro-[4.4]nonane-2-carbonyl)-1H-pyrazole-3-carboxamide]"
–,< 0.1 µM,"CNC(=O)c1ccn(C(=O)N2CC3CN(Cc4cc(Cl)cc(C(F)(F)F)c4)CC3C2)n1 (stereo not drawn) [Example 437, 1-(5-(3-chloro-5-(trifluoromethyl)-benzyl)-octahydropyrrolo-[3,4-c]pyrrole-2-carbonyl)-N-methyl-1H-pyrazole-3-carboxamide]"
–,< 0.1 µM,"CNC(=O)c1ccn(C(=O)N2C[C@H]3C[C@@H](N(C)Cc4ccc(C(F)(F)F)cc4)C[C@H]3C2)n1 [Example 439, N-methyl-1-(cis-5-(methyl(4-(trifluoromethyl)-benzyl)amino)-octahydrocyclopenta-[c]pyrrole-2-carbonyl)-1H-pyrazole-3-carboxamide]"
–,< 0.1 µM,"CNC(=O)c1ccn(C(=O)N2CC3CN(Cc4ccc(N5CCOCC5)cc4C(F)(F)F)CC3C2)n1 (stereo not drawn) [Example 440, N-methyl-1-(5-(4-morpholino-2-(trifluoromethyl)-benzyl)-octahydropyrrolo-[3,4-c]pyrrole-2-carbonyl)-1H-pyrazole-3-carboxamide]"
–,< 0.1 µM,"Cc1cn(C(=O)N2CCN(Cc3cccc(Oc4ccc(Cl)cc4)c3)C[C@@H]2C)nc1C(=O)O [Example 442, (S)-1-(4-(3-(4-chlorophenoxy)-benzyl)-2-methylpiperazine-1-carbonyl)-4-methyl-1H-pyrazole-3-carboxylic acid]"
–,< 0.1 µM,"O=C(O)c1nn(C(=O)N2CCN(Cc3ccc(C(F)(F)F)cc3N3CCCC3)CC2)cc1Cl [Example 443, 4-chloro-1-(4-(2-(pyrrolidin-1-yl)-4-(trifluoromethyl)-benzyl)-piperazine-1-carbonyl)-1H-pyrazole-3-carboxylic acid]"
–,< 0.1 µM,CC(C)COc1cccc(O[C@H]2C[C@@H]3CN(C(=O)n4ccc(C(=O)O)n4)C[C@@H]3C2)c1Cl [Example 448]
–,< 0.1 µM,"C[C@H]1CN(Cc2cccc(OCC(C)(C)O)c2Cl)CCN1C(=O)n1ccc(C(N)=O)n1 [Example 450, (S)-1-(4-(2-chloro-3-(2-hydroxy-2-methylpropoxy)-benzyl)-2-methylpiperazine-1-carbonyl)-1H-pyrazole-3-carboxamide]"
–,< 0.1 µM,"CC(C)(O)COc1cccc(O[C@H]2C[C@@H]3CN(C(=O)n4ccc(C(=O)O)n4)C[C@@H]3C2)c1Cl [Example 451, 1-(trans-5-(2-chloro-3-(2-hydroxy-2-methylpropoxy)-phenoxy)-octahydrocyclopenta-[c]pyrrole-2-carbonyl)-1H-pyrazole-3-carboxylic acid]"
–,< 0.1 µM,"O=C(O)c1ccn(C(=O)N2CCN(Cc3cccc(C(F)(F)F)c3N3CCOCC3)CC2)n1 [Example 453, 1-(4-(2-morpholino-3-(trifluoromethyl)-benzyl)-piperazine-1-carbonyl)-1H-pyrazole-3-carboxylic acid]"
